Measurements from PubChem BioAssay (NCI).
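Briefly, cells in 96-well plates were exposed to five compound concentrations for 48 h, and endpoints were estimated by linear interpolation. TGI marks complete inhibition of growth.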

Legend:
Assay in all cases: NCI tumour cell line growth inhibition, 48 h
786-0 renal = tested on: 786-0 renal
A498 renal = tested on: A498 renal
A549 NSCLC = tested on: A549 NSCLC
ACHN renal = tested on: ACHN renal
CAKI-1 renal = tested on: CAKI-1 renal
CCRF-CEM leukemia = tested on: CCRF-CEM leukemia
COLO 205 colon = tested on: COLO 205 colon
DLD-1 colon = tested on: DLD-1 colon
DMS 273 small cell lung = tested on: DMS 273 small cell lung
EKVX NSCLC = tested on: EKVX NSCLC
HCC-2998 colon = tested on: HCC-2998 colon
HCT-116 colon = tested on: HCT-116 colon
HCT-15 colon = tested on: HCT-15 colon
HL-60(TB) leukemia = tested on: HL-60(TB) leukemia
HOP-18 NSCLC = tested on: HOP-18 NSCLC
HOP-62 NSCLC = tested on: HOP-62 NSCLC
HOP-92 NSCLC = tested on: HOP-92 NSCLC
HT29 colon = tested on: HT29 colon
IGROV1 ovarian = tested on: IGROV1 ovarian
K-562 leukemia = tested on: K-562 leukemia
KM12 colon = tested on: KM12 colon
KM20L2 colon = tested on: KM20L2 colon
LOX IMVI melanoma = tested on: LOX IMVI melanoma
LXFL 529 NSCLC = tested on: LXFL 529 NSCLC
M14 melanoma = tested on: M14 melanoma
M19-MEL melanoma = tested on: M19-MEL melanoma
MALME-3M melanoma = tested on: MALME-3M melanoma
MOLT-4 leukemia = tested on: MOLT-4 leukemia
NCI-H23 lung = tested on: NCI-H23 lung
NCI-H460 lung = tested on: NCI-H460 lung
OVCAR-3 ovarian = tested on: OVCAR-3 ovarian
OVCAR-4 ovarian = tested on: OVCAR-4 ovarian
OVCAR-5 ovarian = tested on: OVCAR-5 ovarian
OVCAR-8 ovarian = tested on: OVCAR-8 ovarian
RPMI-8226 leukemia = tested on: RPMI-8226 leukemia
RXF 393 renal = tested on: RXF 393 renal
RXF-631 renal = tested on: RXF-631 renal
SF-268 CNS = tested on: SF-268 CNS
SF-295 CNS = tested on: SF-295 CNS
SF-539 CNS = tested on: SF-539 CNS
SK-MEL-2 melanoma = tested on: SK-MEL-2 melanoma
SK-MEL-5 melanoma = tested on: SK-MEL-5 melanoma
SK-OV-3 ovarian = tested on: SK-OV-3 ovarian
SN12C renal = tested on: SN12C renal
SNB-19 CNS = tested on: SNB-19 CNS
SNB-75 CNS = tested on: SNB-75 CNS
SNB-78 CNS = tested on: SNB-78 CNS
SW-620 colon = tested on: SW-620 colon
TK-10 renal = tested on: TK-10 renal
U251 CNS = tested on: U251 CNS
UACC-257 melanoma = tested on: UACC-257 melanoma
UACC-62 melanoma = tested on: UACC-62 melanoma
UO-31 renal = tested on: UO-31 renal
XF 498 CNS = tested on: XF 498 CNS
DMS 114 small cell lung = tested on: DMS 114 small cell lung
NCI-H226 lung = tested on: NCI-H226 lung
NCI-H522 lung = tested on: NCI-H522 lung
SK-MEL-28 melanoma = tested on: SK-MEL-28 melanoma
SR leukemia = tested on: SR leukemia

COC(=O)CSc1ccccc1
TGI (786-0 renal): 30.1 µM
TGI (A498 renal): > 100 µM
TGI (A549 NSCLC): > 100 µM
TGI (ACHN renal): > 100 µM
TGI (CAKI-1 renal): > 100 µM
TGI (CCRF-CEM leukemia): > 100 µM
TGI (COLO 205 colon): > 100 µM
TGI (DLD-1 colon): > 100 µM
TGI (DMS 273 small cell lung): > 100 µM
TGI (EKVX NSCLC): > 100 µM
TGI (HCC-2998 colon): > 100 µM
TGI (HCT-116 colon): > 100 µM
TGI (HCT-15 colon): > 100 µM
TGI (HL-60(TB) leukemia): > 100 µM
TGI (HOP-18 NSCLC): > 100 µM
TGI (HOP-62 NSCLC): > 100 µM
TGI (HOP-92 NSCLC): 99.1 µM
TGI (HT29 colon): > 100 µM
TGI (IGROV1 ovarian): > 100 µM
TGI (K-562 leukemia): > 100 µM
TGI (KM12 colon): > 100 µM
TGI (KM20L2 colon): > 100 µM
TGI (LOX IMVI melanoma): > 100 µM
TGI (LXFL 529 NSCLC): > 100 µM
TGI (M14 melanoma): > 100 µM
TGI (M19-MEL melanoma): > 100 µM
TGI (MALME-3M melanoma): 59.8 µM
TGI (MOLT-4 leukemia): > 100 µM
TGI (NCI-H23 lung): > 100 µM
TGI (NCI-H460 lung): > 100 µM
TGI (OVCAR-3 ovarian): > 100 µM
TGI (OVCAR-4 ovarian): > 100 µM
TGI (OVCAR-5 ovarian): > 100 µM
TGI (OVCAR-8 ovarian): > 100 µM
TGI (RPMI-8226 leukemia): > 100 µM
TGI (RXF 393 renal): > 100 µM
TGI (RXF-631 renal): > 100 µM
TGI (SF-268 CNS): > 100 µM
TGI (SF-295 CNS): > 100 µM
TGI (SF-539 CNS): > 100 µM
TGI (SK-MEL-2 melanoma): 46.4 µM
TGI (SK-MEL-5 melanoma): > 100 µM
TGI (SK-OV-3 ovarian): > 100 µM
TGI (SN12C renal): > 100 µM
TGI (SNB-19 CNS): > 100 µM
TGI (SNB-75 CNS): > 100 µM
TGI (SNB-78 CNS): > 100 µM
TGI (SW-620 colon): > 100 µM
TGI (TK-10 renal): > 100 µM
TGI (U251 CNS): > 100 µM
TGI (UACC-257 melanoma): > 100 µM
TGI (UACC-62 melanoma): > 100 µM
TGI (UO-31 renal): > 100 µM
TGI (XF 498 CNS): > 100 µM

CC(=O)Nc1ccc(C2=N/C(=C\c3ccc(Cl)c(Cl)c3)C(=O)O2)cc1
TGI (A498 renal): > 100 µM
TGI (A549 NSCLC): > 100 µM
TGI (ACHN renal): > 100 µM
TGI (CAKI-1 renal): > 100 µM
TGI (CCRF-CEM leukemia): > 100 µM
TGI (COLO 205 colon): > 100 µM
TGI (DLD-1 colon): > 100 µM
TGI (DMS 114 small cell lung): > 100 µM
TGI (DMS 273 small cell lung): > 100 µM
TGI (EKVX NSCLC): > 100 µM
TGI (HCC-2998 colon): > 100 µM
TGI (HCT-116 colon): > 100 µM
TGI (HCT-15 colon): > 100 µM
TGI (HL-60(TB) leukemia): > 100 µM
TGI (HOP-18 NSCLC): > 100 µM
TGI (HOP-62 NSCLC): > 100 µM
TGI (HOP-92 NSCLC): > 100 µM
TGI (HT29 colon): > 100 µM
TGI (IGROV1 ovarian): > 100 µM
TGI (K-562 leukemia): > 100 µM
TGI (KM12 colon): > 100 µM
TGI (KM20L2 colon): > 100 µM
TGI (LOX IMVI melanoma): > 100 µM
TGI (LXFL 529 NSCLC): > 100 µM
TGI (M14 melanoma): > 100 µM
TGI (M19-MEL melanoma): > 100 µM
TGI (MALME-3M melanoma): > 100 µM
TGI (MOLT-4 leukemia): > 100 µM
TGI (NCI-H226 lung): > 100 µM
TGI (NCI-H23 lung): > 100 µM
TGI (NCI-H460 lung): > 100 µM
TGI (NCI-H522 lung): > 100 µM
TGI (OVCAR-3 ovarian): > 100 µM
TGI (OVCAR-4 ovarian): > 100 µM
TGI (OVCAR-5 ovarian): > 100 µM
TGI (OVCAR-8 ovarian): > 100 µM
TGI (RPMI-8226 leukemia): > 100 µM
TGI (RXF 393 renal): > 100 µM
TGI (RXF-631 renal): > 100 µM
TGI (SF-268 CNS): > 100 µM
TGI (SF-295 CNS): > 100 µM
TGI (SF-539 CNS): > 100 µM
TGI (SK-MEL-2 melanoma): > 100 µM
TGI (SK-MEL-28 melanoma): > 100 µM
TGI (SK-MEL-5 melanoma): > 100 µM
TGI (SK-OV-3 ovarian): > 100 µM
TGI (SN12C renal): > 100 µM
TGI (SNB-19 CNS): > 100 µM
TGI (SNB-75 CNS): > 100 µM
TGI (SNB-78 CNS): > 100 µM
TGI (SR leukemia): > 100 µM
TGI (SW-620 colon): > 100 µM
TGI (TK-10 renal): > 100 µM
TGI (U251 CNS): > 100 µM
TGI (UACC-257 melanoma): > 100 µM
TGI (UACC-62 melanoma): > 100 µM
TGI (UO-31 renal): > 100 µM
TGI (XF 498 CNS): > 100 µM
